Experimental data reported in ChEMBL document CHEMBL1136266, “beta-Homolysine oligomers: a new class of Trojan carriers” (Bioorg Med Chem Lett, 2003).

Tests used:
Format in all cases: functional, cell-based
Conditions in all cases: Homo sapiens
[1] = test system: DU-145; experiment: Cellular uptake of compound into DU145 tumor cells by laser scanning cytometry at a concentration of 10 uM
[2] = test system: DU-145; experiment: Cellular uptake of compound into DU145 tumor cells by laser scanning cytometry at a concentration of 1 uM
[3] = test system: HCT-15; experiment: Cellular uptake of compound into HCT15 tumor cells by laser scanning cytometry at a concentration of 10 uM
[4] = test system: HCT-15; experiment: Cellular uptake of compound into HCT15 tumor cells by laser scanning cytometry at a concentration of 1 uM
[5] = test system: HCT-15; experiment: Cellular uptake of compound into HCT15 tumor cells by laser scanning cytometry at a concentration of 0.1 uM
[6] = test system: DU-145; experiment: Cellular uptake of compound into DU145 tumor cells by laser scanning cytometry at a concentration of 0.1 uM

Row | Structure (SMILES) | Uptake [1] [%] | Uptake [2] [%] | Uptake [3] [%] | Uptake [4] [%] | Uptake [5] [%] | Uptake [6] [%]
1 | NCCCCC(CC(N)=O)NC(=O)CC(CCCCN)NC(=O)CC(CCCCN)NC(=O)CC(CCCCN)NC(=O)CC(CCCCN)NC(=O)CC(CCCCN)NC(=O)CC(CCCCN)NC(=O)CC(CCCCN)NC(=O)COCCOCCNC(=O)c1ccccc1C1c2ccc(O)cc2Oc2cc(O)ccc21 (stereo not given) | 89.5 | 98.9 | 99.9 | 99.9 | 99.5 | 98.5
2 | NCCCCC(CC(N)=O)NC(=O)CC(CCCCN)NC(=O)CC(CCCCN)NC(=O)CC(CCCCN)NC(=O)CC(CCCCN)NC(=O)CC(CCCCN)NC(=O)CC(CCCCN)NC(=O)COCCOCCNC(=O)c1ccccc1C1c2ccc(O)cc2Oc2cc(O)ccc21 (stereo not given) | 98.8 | 85.8 | 99.8 | 99.8 | 99.9 | 92.5
3 | O=C1OC2(c3ccc(O)cc3Oc3cc(O)ccc32)c2ccccc21 | 0.3 | 0.8 | 0.7 | 1.1 | 0.3 | 0.1
4 | NCCCCC(CC(N)=O)NC(=O)CC(CCCCN)NC(=O)CC(CCCCN)NC(=O)CC(CCCCN)NC(=O)CC(CCCCN)NC(=O)CC(CCCCN)NC(=O)COCCOCCNC(=O)c1ccccc1C1c2ccc(O)cc2Oc2cc(O)ccc21 (stereo not given) | 94.9 | 69.5 | 99.6 | 99.7 | 99.9 | 40.4
5 | NCCCCC(CC(N)=O)NC(=O)CC(CCCCN)NC(=O)CC(CCCCN)NC(=O)CC(CCCCN)NC(=O)CC(CCCCN)NC(=O)COCCOCCNC(=O)c1ccccc1C1c2ccc(O)cc2Oc2cc(O)ccc21 (stereo not given) | 97.8 | 76.5 | 99.8 | 99.6 | 99.8 | 71.9
